From patent US9055743B2, “Alpha, beta-unsaturated imines” (BAYER INTELLECTUAL PROPERTY GMBH, priority 2010, dated 2015)

What was measured:
Format in all cases: in vivo
[1] = system: larvae of the mustard beetle (Phaedon cochleariae); assay: Phaedon test (PHAECO spray treatment); conditions: 500 g/ha, spray, after 7 days
Experimental: Phaedon Test ([…] Spray Treatment) Solvents: 78.0 parts by weight of acetone • • 1.5 parts by weight of dimethylformamide Emulsifier: 0.5 part by weight of alkylaryl polyglycol ether To produce a suitable preparation of active compound, 1 part by weight of active compound is mixed with the stated amounts of solvents and emulsifiers, and the concentrate is diluted with emulsifier-containing water to the desired concentration. Discs of Chinese cabbage leaves (Brassica pekinensis) are sprayed with an active compound preparation of the desired concentration and, after drying, populated with larvae of the mustard beetle (Phaedon cochleariae).

[2] = system: caterpillars of the army worm (Spodoptera frugiperda); assay: Spodoptera frugiperda test (SPODFR spray treatment); conditions: 500 g/ha, spray, after 7 days
Experimental: Spodoptera frugiperda Test (SPODFR Spray Treatment) Solvents: 78.0 parts by weight of acetone • • 1.5 parts by weight of dimethylformamide Emulsifier: 0.5 part by weight of alkylaryl polyglycol ether
(§1) To produce a suitable preparation of active compound, 1 part by weight of active compound is mixed with the stated amounts of solvents and emulsifier, and the concentrate is diluted with emulsifier-containing water to the desired concentration.
Discs of maize leaves (Zea mays) are sprayed with an active compound preparation of the desired concentration and, after drying, populated with caterpillars of the army worm (Spodoptera frugiperda) besetzt.
After 7 days, the activity in % is determined. 100% means that all caterpillars have been killed; 0% means that none of the caterpillars have been killed.

[3] = system: greenhouse red spider mite (Tetranychus urticae); assay: Tetranychus test; OP-resistant (TETRUR spray treatment); conditions: 500 g/ha, spray, after 6 days
Experimental: Tetranychus Test; OP-Resistant (TETRUR Spray Treatment) Solvents: 78.0 parts by weight of acetone • • 1.5 parts by weight of dimethylformamide Emulsifier: 0.5 part by weight of alkylaryl polyglycol ether
as §1
Discs of bean leaves (Phaseolus vulgaris) infested by all stages of the greenhouse red spider mite (Tetranychus urticae) are sprayed with an active compound preparation of the desired concentration.
After 6 days, the activity in % is determined. 100% means that all spider mites have been killed; 0% means that none of the spider mites have been killed.

[4] = system: green peach aphid (Myzus persicae); assay: Myzus test (MYZUPE spray treatment); conditions: 500 g/ha, spray, after 6 days
Experimental: Myzus Test (MYZUPE Spray Treatment) Solvents: 78 parts by weight of acetone • • 1.5 parts by weight of dimethylformamide Emulsifier: 0.5 part by weight of alkylaryl polyglycol ether
as §1
Discs of Chinese cabbage leaves (Brassica pekinensis) which are infested by all stages of the green peach aphid (Myzus persicae) are sprayed with an active compound preparation of the desired concentration.
After 6 days, the activity in % is determined. 100% means that all aphids have been killed; 0% means that none of the aphids have been killed.

[5] = system: cat fleas (Ctenocephalides felis, fully sensitive laboratory strain); assay: Contact test against fleas in-vitro (CTECFE contact); conditions: 500 g/ha, after 48 h
Experimental: Contact Test Against Fleas In-Vitro (CTECFE Contact)
An amount of 0.9 mg of active compound is weighed out, and 1 ml of acetone is added.
Of this acetone solution, either […] are transferred directly into roll-necked test tubes or an aliquot is diluted with 4 parts of acetone 1:5. For its part, 250 μl of this dilution are pipetted into roll-necked test tubes, or the dilution is diluted further, etc., until the desired number of dilution steps is reached.
The roll-necked test tubes containing the solution of the active compound in acetone are immediately coated in a fume cupboard by 2 h of swing rotation at 30 rpm. After evaporation of the solvent, the active compound contained in the acetone gives, at the highest concentration tested, an active compound content of 500 g/ha (or 500 μg/dm^2) on the surface of the test tube.
10-20 Adult cat fleas (Ctenocephalides felis, fully sensitive laboratory strain) anesthetized with CO2 are transferred into the test tubes prepared in this manner, and the test tubes are closed with a plastic roll-necked lid provided with fine holes.
The test tubes are stored vertically at room temperature and humidity for 24 or 48 h. After 24 and 48 h, the activity of the active compound applied is determined by comparison with an acetone-treated control. Here, an observed normal activity for all fleas corresponds to 0% activity, a strongly restricted or uncoordinated (knock-down) movement or death of all fleas corresponds to 100% activity.

[6] = system: Anopheles gambiae (homocygus kdr); assay: Anopheles test (ANPHGB surface treatment); conditions: 100 mg/m^2, two hours after contact, exposition 30 minutes
Experimental: Anopheles Test (ANPHGB Surface Treatment) Solvent: Acetone
To produce a suitable preparation of active compound, the active compound is dissolved in acetone (2 mg/ml). The active compound preparation is pipetted onto a glazed tile and, after drying, adult mosquitoes of the species Anopheles gambiae (homocygus kdr) are placed onto the treated tile. The exposition time is 30 minutes.
Two hours after contact to the treated surface, the knock-down proportion of the test animals in % is determined.
24 hours after contact to the treated surface, the mortality in % is determined. Here, 100% means that all mosquitoes have been killed; 0% means that none of the mosquitoes has been killed.

SMILES | activity (beetle larvae killed) [1] | activity (caterpillars killed) [2] | activity (spider mites killed) [3] | activity (aphids killed) [4] | activity against cat fleas [5] | knock-down activity [6]
Cc1cccc(N=C2C(=CSc3ccccc3)C(C)c3ccccc32)c1 (mixture of isomers) [Example 1-12] | 100% | 100% | 100% |  |  | 
CC1C(=CSc2ccccc2)C(=Nc2ccccc2)c2ccccc21 (mixture of isomers) [Example 1-13] | 100% | 100% | 100% | 100% |  | 
C(Sc1ccccc1)=C1C(=Nc2ccccc2)c2ccccc2C1c1ccccc1 (mixture of isomers) [Example 1-19] | 100% | 100% | 100% | 100% |  | 
COc1ccc(N=C2C(=CSc3ccccc3)C(C)c3ccccc32)cc1 (mixture of isomers) [Example 1-22] |  | 100% | 90% |  | 100% | 
Cc1ccc(N=C2C(=CSc3ccc(F)cc3)C(C)c3cc(Cl)ccc32)cc1 (mixture of isomers) [Example 1-50] |  |  |  |  |  | 85%
Cc1ccc2c(c1)C(C)C(=CSc1ccc(F)cc1)C2=Nc1ccc(C)c(C)c1 (mixture of isomers) [Example 1-71] | 100% | 100% | 100% | 90% |  | 100%
Cc1cc(C)cc(N=C2C(=CSc3ccc(F)cc3)C(C)c3cc(C)ccc32)c1 (mixture of isomers) [Example 1-72] |  | 100% |  |  |  | 
Cc1ccc(N=C2C(=CSc3ccc(F)cc3)CCc3cc(Cl)sc32)cc1 (mixture of isomers) [Example 1-91] | 100% | 100% | 100% | 90% |  | 
CCOC1=CC(=CSc2ccccc2)C(=Nc2ccc(C)cc2)CC1 (mixture of isomers) [Example 1-97] |  |  | 100% |  |  | 
Cc1ccc(N=C2CCC(OC(C)C)=CC2=CSc2ccc(F)cc2)cc1 (mixture of isomers) [Example 1-99] |  |  | 100% |  |  | 
Cc1ccc(N=C2c3ccccc3C(c3ccccc3)C2C(Sc2ccccc2)Sc2ccccc2)cc1 (mixture of isomers) [Example 2-9] | 100% | 100% | 100% | 100% |  | 
c1ccc(N=C2c3ccccc3C(c3ccccc3)C2C(Sc2ccccc2)Sc2ccccc2)cc1 (mixture of isomers) [Example 2-10] |  | 100% | 100% | 100% |  | 
Cc1ccc(N=C2C(=CSc3ccc(F)cc3)COc3cc(-c4ccccc4)ccc32)cc1 [Example 1-24] |  |  |  | 90% |  | 
Cc1ccc(N=C2C(=CSc3ccc(F)cc3)C(C)Oc3ccc(F)cc32)cc1 (stereo not drawn) [Example 1-25] |  | 100% |  |  |  | 
Cc1ccc(N=C2C(=CSc3ccc(F)cc3)CCc3c(C)cc(C)cc32)cc1 [Example 1-30] |  | 100% | 80% |  |  | 
COc1cccc2c1CCC(=CSc1ccc(F)cc1)C2=Nc1ccc(C)cc1 [Example 1-31] |  | 100% | 100% |  | 100% | 
CC(C)c1ccc(N=C2C(=CSc3ccc(F)cc3)CCc3ccccc32)cc1 [Example 1-42] |  |  | 80% |  |  | 
